Assay results as given in patent publication US8389563B2, “C-substituted diindolylmethane compositions and methods for the treatment of multiple cancers” (The Texas A&M University System, priority 2000, dated 2013).

Tests used:
PPARγ = target: T1, PPARγ (Homo sapiens, UniProt P37231); assay: pGAL4-PPARγ / pGAL45 luciferase reporter assay in MCF-7 breast cancer cells; format: cell-based; settings: 5 μM
T1 construct: expressed in transfected cells; host or cells: MCF-7 breast cancer cells
T1 sequence (P37231 238-503 limits assumed): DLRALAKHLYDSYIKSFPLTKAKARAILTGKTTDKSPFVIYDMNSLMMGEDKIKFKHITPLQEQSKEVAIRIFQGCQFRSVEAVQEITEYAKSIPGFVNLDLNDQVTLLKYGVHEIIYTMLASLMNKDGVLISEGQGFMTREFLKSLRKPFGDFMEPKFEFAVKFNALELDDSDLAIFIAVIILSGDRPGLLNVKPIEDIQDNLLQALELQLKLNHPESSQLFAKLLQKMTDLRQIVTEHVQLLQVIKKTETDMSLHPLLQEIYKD
Excerpt: Peroxisome proliferator-activated receptor (PPAR) is a nuclear receptor that induces differentiation in multiple tissues and cell lines. Synthetic compounds that bind PPAR (inhibit growth, induce differentiation in multiple tumor cell lines, and inhibit mammary carcinogenesis in rodent models (Mueller et al., “Terminal differentiation of human breast cancer through PPAR” Mol. Cell. 1:465 470, 1998; Elstner et al., “Ligands for peroxisome proliferator-activated receptor gamma and retinoic acid receptor inhibit growth and induce apoptosis of human breast cancer cells in vitro and in BNX mice” Proc. Natl. Acad. Sci. USA 95:8806 8811, 1998; Brockman et al., “Activation of PPARγ leads to inhibition of anchorage independent growth of human colorectal cancer cells” Gastroenterology 115:2049 1055, 1998; Tontonoz et al., “Terminal differentiation of human lipsarcoma cells induced by ligands for peroxisome proliferator-activated receptor and the retinoid X receptor” Proc. Natl. Acad. Sci. USA 94:237 241, 1997; Suh et al., “A new ligand for the peroxisome proliferator-activated receptor-PPAR, GW7845, inhibits rat mammary carcinogenesis” Cancer Res. 59:56715673, 1999). […] Ligand activation of pGAL4-PPARγ is detected using a construct containing five tandem GAL4 response elements (pGAL45) linked to a luciferase reporter gene.

[1] = tested on: CYP1A1-dependent ethoxyresorufin O-deethylase (EROD) activity; assay: Induction of EROD activity in PC3 prostate cancer cells
Excerpt: (§1) Results illustrated below summarize the concentration-dependent induction of CYP1A1-dependent ethoxyresorufin O-deethylase (EROD) activity by DIM and TCDD in androgen-nonresponsive PC3 human prostate cancer cells (FIG. 12). […] We also investigated the induction of EROD activity in two additional androgen-responsive prostate cancer cell lines.

[2] = tested on: 22Rv1 human prostate cancer cells; assay: Proliferation of 22Rv1 prostate cancer cells; format: cell-based; settings: 1 nM TCDD
[3] = tested on: CYP1A1-dependent ethoxyresorufin O-deethylase (EROD) activity; assay: Induction of EROD activity in LnCAP prostate cancer cells; format: cell-based, human
Excerpt: as §1

[4] = tested on: CYP1A1-dependent ethoxyresorufin O-deethylase (EROD) activity; assay: Induction of EROD activity in 22Rv1 prostate cancer cells; settings: treatment for 24 hrs; TCDD 0.1 to 10 nM
Excerpt: as §1

| SMILES | Increase in reporter gene (luciferase) activity, pGAL4-PPARγ (PPARγ) | Treatment time of maximal EROD induction in PC3 cells ([1]; 10 nM TCDD) | Induction of EROD activity in PC3 cells ([1]; 10 μM DIM, 10 nM TCDD) | Induction of EROD activity in PC3 cells after 24 hours ([1]; 24 hours) | Proliferation of 22Rv1 human prostate cancer cells [2] | Induction of EROD activity in LnCAP cells [3] | Induction of EROD activity in 22Rv1 cells [4] |
| --- | --- | --- | --- | --- | --- | --- | --- |
| CCCCC/C=C/C=C1/C(=O)C=C[C@@H]1C/C=C\CCCC(=O)O [PGJ, 15-deoxy-γ^12,14-prostaglandin J2] | 2 fold |  |  |  |  |  |  |
| Clc1cc2c(cc1Cl)Oc1cc(Cl)c(Cl)cc1O2 [TCDD, 2,3,7,8-tetrachlorodibenzo-p-dioxin] |  | 96 h | induced EROD activity | minimal (but significant) induction | inhibited proliferation | significant induction of EROD activity | induced EROD activity |
